# Assay results published in patent US20230114728A1 (Venatorx Pharmaceuticals, Inc., priority 2019, published 2023).
# Columns and labels:
# Type in all cases: cell-based
# [1] = tested on: N. gonorrhoeae H041; assay: Liquid broth MIC in Fastidious broth; conditions: Neisseria gonorrhoeae, H041, read-out: Minimum Inhibitory Concentration, N. gonorrhoeae H041
# Procedure, shortened: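 Mosaic-PBP2 strains grown 24 h on chocolate agar (36 °C, 5% CO2), then direct-suspended in saline and OD600-adjusted. Twofold compound dilutions in Fastidious broth inoculated at 5×10^5 CFU/mL and incubated ~24 h at 36 °C, 5% CO2. MIC read visually as lowest concentration with <10% growth versus full-growth wells.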
# [2] = tested on: E. coli D22; assay: Broth microdilution MIC in CAMHB; conditions: Escherichia coli; E. coli D22 (hyper-permeable); MHB; read-out: Minimum Inhibitory Concentration, E. coli D22
# Procedure, shortened: (§1)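 Per CLSI broth microdilution, colonies were grown 3-5 h at 37° C in cation-adjusted Mueller Hinton broth, then diluted to a starting inoculum of 2-8×10^5 CFU/mL against 2-fold serial compound dilutions. Plates were incubated 16-20 h at 37° C, and MIC was read visually as the lowest concentration with no growth.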
# [3] = tested on: P. aeruginosa (ΔmexAB-oprM); assay: Broth microdilution MIC in CAMHB; conditions: Pseudomonas aeruginosa, read-out: Minimum Inhibitory Concentration, P. aeruginosa ΔmexAB-OprM
# Procedure, shortened: as §1
# [4] = tested on: E. coli AG100A; assay: Broth microdilution MIC in CAMHB; conditions: Escherichia coli, read-out: Minimum Inhibitory Concentration, E. coli AG100A
# Procedure, shortened: as §1
# [5] = tested on: K. pneumoniae 848844 producing SHV-11 and KPC-2; assay: Broth microdilution MIC in CAMHB; conditions: Klebsiella pneumoniae, read-out: Minimum Inhibitory Concentration, K. pneumoniae 848844
# Procedure, shortened: as §1
# [6] = tested on: E. coli 901C; assay: Broth microdilution MIC in CAMHB; conditions: Escherichia coli; E. coli 901C (hyper-permeable); MHB; read-out: Minimum Inhibitory Concentration, E. coli 901C
# Procedure, shortened: as §1
# [7] = tested on: E. coli ATCC 25922; assay: Broth microdilution MIC in CAMHB; conditions: Escherichia coli, ATCC25922; E. coli ATCC 25922; MHB; read-out: Minimum Inhibitory Concentration, E. coli 25922
# Procedure, shortened: as §1
# [8] = tested on: K. pneumoniae UMM producing SHV-5 and KPC-2; assay: Broth microdilution MIC in CAMHB; conditions: Klebsiella pneumoniae, read-out: Minimum Inhibitory Concentration, K. pneumoniae UMM
# Procedure, shortened: as §1
# [9] = tested on: A. baumannii ATCC 19606; assay: Broth microdilution MIC in CAMHB; conditions: Acinetobacter baumannii, ATCC19606; MHB; read-out: Minimum Inhibitory Concentration, A. baumannii ATCC 19606
# Procedure, shortened: as §1
# [10] = tested on: P. aeruginosa ATCC 27853; assay: Broth microdilution MIC in CAMHB; conditions: Pseudomonas aeruginosa, ATCC27853; MHB; read-out: Minimum Inhibitory Concentration, P. aeruginosa ATCC 27853
# Procedure, shortened: as §1
# [11] = tested on: K. pneumoniae SI-117 producing VIM-1; assay: Broth microdilution MIC in CAMHB; conditions: Klebsiella pneumoniae, read-out: Minimum Inhibitory Concentration, K. pneumoniae SI-117
# Procedure, shortened: as §1
# [12] = tested on: P. aeruginosa ATCC 35151; assay: Broth microdilution MIC in CAMHB; conditions: Pseudomonas aeruginosa, ATCC35151; MHB; hyper-permeable strain; read-out: Minimum Inhibitory Concentration, P. aeruginosa ATCC 35151
# Procedure, shortened: as §1
# [13] = tested on: E. coli AG100; assay: Broth microdilution MIC in CAMHB; conditions: Escherichia coli; E. coli AG100 (wild-type parent); MHB; read-out: Minimum Inhibitory Concentration, E. coli AG100
# Procedure, shortened: as §1
SMILES,MIC [1] [µg/mL],MIC [2] [µg/mL],MIC [3] [µg/mL],MIC [4] [µg/mL],MIC [5] [µg/mL],MIC [6] [µg/mL],MIC [7] [µg/mL],MIC [8] [µg/mL],MIC [9] [µg/mL],MIC [10] [µg/mL],MIC [11] [µg/mL],MIC [12] [µg/mL],MIC [13] [µg/mL]
"NCCN1CCN(C(=O)NC(C(=O)N[C@H]2Cc3cccc(C(=O)O)c3OB2O)c2cc(F)c(O)c(Cl)c2)C(=O)C1=O (stereo partly drawn) [Example 163, (3R)-3-(2-(4-(2-aminoethyl)-2,3-dioxopiperazine-1-carboxamido)-2-(3-chloro-5-fluoro-4-hydroxyphenyl)acetamido)-2-hydroxy-3,4-dihydro-2H-benzo[e][1,2]oxaborinine-8-carboxylic acid]",> 64,8 to 16,2 to 4,2 to 4,> 128,0.5 to 1,32 to 64,32 to 64,> 128,32 to 64,> 128,< 0.25,32 to 64
"CCN1CCN(C(=O)NC(C(=O)N[C@H]2Cc3cccc(C(=O)O)c3OB2O)c2cccc(CNS(N)(=O)=O)c2)C(=O)C1=O (stereo partly drawn) [Example 107, (3R)-3-(2-(4-ethyl-2,3-dioxopiperazine-1-carboxamido)-2-(3-((sulfamoylamino)methyl)phenyl)acetamido)-2-hydroxy-3,4-dihydro-2H-benzo[e][1,2]oxaborinine-8-carboxylic acid]",> 64,8 to 16,8 to 16,2 to 4,> 128,0.5 to 1,32 to 64,> 128,> 128,> 128,> 128,8 to 16,> 128
"O=C(O)c1c(F)ccc2c1OB(O)[C@@H](NC(=O)C(NC(=O)N1CCN(CCF)C(=O)C1=O)c1c(F)cc(O)cc1F)C2 (stereo partly drawn) [Example 129, (3R)-3-(2-(2,6-difluoro-4-hydroxyphenyl)-2-(4-(2-fluoroethyl)-2,3-dioxopiperazine-1-carboxamido)acetamido)-7-fluoro-2-hydroxy-3,4-dihydro-2H-benzo[e][1,2]oxaborinine-8-carboxylic acid]",16 to 32,2 to 4,32 to 64,8 to 16,32 to 64,0.5 to 1,32 to 64,32 to 64,> 128,> 128,32 to 64,0.5 to 1,32 to 64
"CCN1CCN(C(=O)NC(C(=O)N[C@H]2Cc3cccc(C(=O)O)c3OB2O)c2cc(F)c(O)c(Cl)c2)C(=O)C1=O (stereo partly drawn) [Example 164, (3R)-3-(2-(3-chloro-5-fluoro-4-hydroxyphenyl)-2-(4-ethyl-2,3-dioxopiperazine-1-carboxamido)acetamido)-2-hydroxy-3,4-dihydro-2H-benzo[e][1,2]oxaborinine-8-carboxylic acid]",16 to 32,2 to 4,2 to 4,2 to 4,> 128,< 0.25,32 to 64,32 to 64,> 128,> 128,> 128,< 0.25,32 to 64
"NS(=O)(=O)Nc1cccc(C(NC(=O)N2CCN(CCF)C(=O)C2=O)C(=O)N[C@H]2Cc3cccc(C(=O)O)c3OB2O)c1 (stereo partly drawn) [Example 116, (3R)-3-(2-(4-(2-fluoroethyl)-2,3-dioxopiperazine-1-carboxamido)-2-(3-(sulfamoylamino)phenyl)acetamido)-2-hydroxy-3,4-dihydro-2H-benzo[e][1,2]oxaborinine-8-carboxylic acid]",> 64,0.5 to 1,8 to 16,2 to 4,> 128,< 0.25,8 to 16,32 to 64,> 128,> 128,32 to 64,0.5 to 1,8 to 16
"O=C(O)c1cccc2c1OB(O)[C@@H](NC(=O)C(NC(=O)N1CCNC1=O)c1c(F)cc(O)cc1F)C2 (stereo partly drawn) [Example 156, (3R)-3-(2-(2,6-difluoro-4-hydroxyphenyl)-2-(2-oxoimidazolidine-1-carboxamido)acetamido)-2-hydroxy-3,4-dihydro-2H-benzo[e][1,2]oxaborinine-8-carboxylic acid]",> 64,8 to 16,8 to 16,2 to 4,32 to 64,0.5 to 1,32 to 64,32 to 64,> 128,> 128,32 to 64,0.5 to 1,32 to 64
